Reference: ChEMBL document CHEMBL4177611, “Discovery of aminocyclohexene analogues as selective and orally bioavailable hNav1.7 inhibitors for analgesia” (Bioorg Med Chem Lett, 2017)

Assays:
[1] = Plasma concentration in Sprague-Dawley rat spinal nerve ligation model at 100 mg/kg administered as single dose via oral gavage measured after 1 hr by LC-MS/MS analysis; type: ADME, organism-based
[2] = molecular target: Sodium channel protein type 5 subunit alpha (Homo sapiens, UniProt Q14524); test: Inhibition of human Nav1.5 expressed in HEK293 cells at -120 mV holding potential incubated over 5 mins measured at 15 secs interval by Qpatch clamp assay; type: cell-based
physchem [3] = settings: buffer, pH 7.4
[4] = AUC in Sprague-Dawley rat at 10 mg/kg administered as single dose via oral gavage by LC-MS/MS analysis; type: ADME, organism-based; settings: in vivo
[5] = Metabolic stability in rat liver microsomes assessed as parent compound remaining at 10 uM measured up to 60 mins in presence of NADPH by LC-MS analysis; type: ADME, microsome; settings: read-out: Stability
Cytochrome P450 2C9 = Cytochrome P450 2C9 (Homo sapiens, UniProt P11712)
Sequence of Cytochrome P450 2C9 (P11712 whole entry): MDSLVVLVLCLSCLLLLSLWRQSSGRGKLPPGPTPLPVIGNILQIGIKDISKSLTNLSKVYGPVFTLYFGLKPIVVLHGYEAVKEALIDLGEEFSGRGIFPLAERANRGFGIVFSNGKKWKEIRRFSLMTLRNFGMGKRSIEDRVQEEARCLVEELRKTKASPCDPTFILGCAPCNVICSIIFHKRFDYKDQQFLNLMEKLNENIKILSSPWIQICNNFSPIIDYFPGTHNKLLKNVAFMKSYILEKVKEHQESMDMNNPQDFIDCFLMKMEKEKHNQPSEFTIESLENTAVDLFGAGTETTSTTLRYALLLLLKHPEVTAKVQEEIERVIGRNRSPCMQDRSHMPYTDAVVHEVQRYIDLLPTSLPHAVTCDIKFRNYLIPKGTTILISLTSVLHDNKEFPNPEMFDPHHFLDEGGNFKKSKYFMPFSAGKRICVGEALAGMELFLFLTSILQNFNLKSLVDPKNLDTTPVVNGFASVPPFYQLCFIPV

[6] = Unbound plasma concentration in Sprague-Dawley rat spinal nerve ligation model at 100 mg/kg administered as single dose via oral gavage measured after 4 hrs by LC-MS/MS analysis; type: ADME, organism-based; settings: in vivo
[7] = AUC (0 to last) in Sprague-Dawley rat at 10 mg/kg administered as single dose via oral gavage by LC-MS/MS analysis; type: ADME, organism-based; set-up: dose 10 mg/kg, route oral, time 0 - last; settings: in vivo
[8] = Tmax in Sprague-Dawley rat at 10 mg/kg administered as single dose via oral gavage by LC-MS/MS analysis; type: ADME, organism-based; settings: in vivo
Rattus norvegicus = test: Unbound AUC (0 to last) in Sprague-Dawley rat at 10 mg/kg administered as single dose via oral gavage by LC-MS/MS analysis; type: ADME, organism-based; settings: in vivo
[9] = Half life in Sprague-Dawley rat at 3 mg/kg administered as single iv bolus by LC-MS/MS analysis; type: ADME, organism-based; settings: in vivo
[10] = Drug metabolism in human liver microsomes assessed as dealkylation by measuring M1 metabolite formation at 10 uM measured up to 60 mins in presence of NADPH by LC-MS analysis relative to total metabolite peak area; type: ADME, microsome; settings: 1 h
[11] = Intrinsic clearance in human liver microsomes at 1 uM after 60 mins in presence of NADPH by LC-MS/MS analysis; type: ADME, microsome; settings: read-out: CLH
[12] = Unbound plasma concentration in Sprague-Dawley rat spinal nerve ligation model at 30 mg/kg administered as single dose via oral gavage measured after 1 hr by LC-MS/MS analysis; type: ADME, organism-based; settings: in vivo
[13] = Metabolic stability in human liver microsomes assessed as parent compound remaining at 10 uM measured up to 60 mins in presence of NADPH by LC-MS analysis; type: ADME, microsome; settings: read-out: Stability
[14] = molecular target: Sodium channel protein type 9 subunit alpha (Homo sapiens, UniProt Q15858); test: Inhibition of human Nav1.7 expressed in CHO-K1 cells at -120 mV holding potential incubated over 5 mins measured at 15 secs interval by Qpatch clamp assay; type: cell-based
Sequence of Sodium channel protein type 9 subunit alpha (Q15858 whole entry): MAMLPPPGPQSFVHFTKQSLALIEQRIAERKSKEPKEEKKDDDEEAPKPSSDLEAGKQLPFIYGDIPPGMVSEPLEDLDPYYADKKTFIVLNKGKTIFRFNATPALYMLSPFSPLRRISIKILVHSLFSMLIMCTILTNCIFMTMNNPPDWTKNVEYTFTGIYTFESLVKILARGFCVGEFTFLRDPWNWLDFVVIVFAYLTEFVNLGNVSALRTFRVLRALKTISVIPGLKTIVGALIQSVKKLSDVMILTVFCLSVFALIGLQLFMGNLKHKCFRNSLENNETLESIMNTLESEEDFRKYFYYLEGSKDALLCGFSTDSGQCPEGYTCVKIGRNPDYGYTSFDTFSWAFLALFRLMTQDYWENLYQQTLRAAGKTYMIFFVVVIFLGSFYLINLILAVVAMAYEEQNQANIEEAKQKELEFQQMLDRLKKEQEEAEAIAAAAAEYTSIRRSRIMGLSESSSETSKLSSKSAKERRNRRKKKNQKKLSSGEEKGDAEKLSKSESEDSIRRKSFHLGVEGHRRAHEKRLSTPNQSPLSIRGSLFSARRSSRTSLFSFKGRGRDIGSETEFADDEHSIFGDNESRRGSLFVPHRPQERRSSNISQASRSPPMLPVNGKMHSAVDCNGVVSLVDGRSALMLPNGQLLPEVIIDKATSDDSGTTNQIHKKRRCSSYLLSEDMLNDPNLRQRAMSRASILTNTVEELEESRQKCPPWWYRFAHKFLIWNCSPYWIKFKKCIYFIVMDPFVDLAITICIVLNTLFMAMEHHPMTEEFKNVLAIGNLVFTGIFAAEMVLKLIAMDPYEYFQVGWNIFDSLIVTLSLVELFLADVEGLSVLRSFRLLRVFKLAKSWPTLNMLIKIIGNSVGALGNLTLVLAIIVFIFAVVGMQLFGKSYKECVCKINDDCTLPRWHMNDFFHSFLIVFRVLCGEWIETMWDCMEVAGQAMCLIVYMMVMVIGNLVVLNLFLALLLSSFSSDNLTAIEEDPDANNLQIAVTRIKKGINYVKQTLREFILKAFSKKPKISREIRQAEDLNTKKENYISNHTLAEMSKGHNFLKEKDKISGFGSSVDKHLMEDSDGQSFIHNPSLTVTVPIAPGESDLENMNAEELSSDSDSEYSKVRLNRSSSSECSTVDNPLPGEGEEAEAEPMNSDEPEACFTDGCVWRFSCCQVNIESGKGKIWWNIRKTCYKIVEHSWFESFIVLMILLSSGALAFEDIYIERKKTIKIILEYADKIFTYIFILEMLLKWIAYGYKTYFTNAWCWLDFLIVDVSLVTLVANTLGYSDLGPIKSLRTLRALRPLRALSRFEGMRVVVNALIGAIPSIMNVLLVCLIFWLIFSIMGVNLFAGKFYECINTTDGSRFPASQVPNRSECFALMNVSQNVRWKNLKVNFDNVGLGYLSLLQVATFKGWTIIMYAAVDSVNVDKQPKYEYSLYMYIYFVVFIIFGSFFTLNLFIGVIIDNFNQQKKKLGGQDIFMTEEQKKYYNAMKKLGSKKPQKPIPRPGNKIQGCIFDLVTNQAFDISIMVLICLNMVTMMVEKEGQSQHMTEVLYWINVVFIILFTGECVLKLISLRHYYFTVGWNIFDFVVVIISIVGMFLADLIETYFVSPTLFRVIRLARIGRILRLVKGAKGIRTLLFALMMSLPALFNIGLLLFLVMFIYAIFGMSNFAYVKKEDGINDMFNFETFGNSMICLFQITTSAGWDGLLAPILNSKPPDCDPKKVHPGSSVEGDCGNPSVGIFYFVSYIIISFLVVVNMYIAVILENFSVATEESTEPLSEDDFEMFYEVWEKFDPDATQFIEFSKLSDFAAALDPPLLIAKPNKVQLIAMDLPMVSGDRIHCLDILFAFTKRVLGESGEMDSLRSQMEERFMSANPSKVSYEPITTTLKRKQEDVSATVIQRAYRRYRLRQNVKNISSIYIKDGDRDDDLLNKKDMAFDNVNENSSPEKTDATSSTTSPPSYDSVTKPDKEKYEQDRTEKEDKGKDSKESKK

[15] = Drug metabolism in human liver microsomes assessed as oxygenation by measuring M3 metabolite formation at 10 uM measured up to 60 mins in presence of NADPH by LC-MS analysis relative to total metabolite peak area; type: ADME, microsome; settings: 1 h
[16] = Unbound plasma concentration in Sprague-Dawley rat spinal nerve ligation model at 100 mg/kg administered as single dose via oral gavage measured after 1 hr by LC-MS/MS analysis; type: ADME, organism-based; settings: in vivo
[17] = Dissociation constant, pKa of the compound; type: physicochemical
[18] = AUC (0 to last) in Sprague-Dawley rat at 3 mg/kg administered as single iv bolus by LC-MS/MS analysis; type: ADME, organism-based; set-up: dose 3 mg/kg, route intravenous, time 0 - last; settings: in vivo
[19] = Plasma concentration in Sprague-Dawley rat spinal nerve ligation model at 100 mg/kg administered as single dose via oral gavage measured after 4 hrs by LC-MS/MS analysis; type: ADME, organism-based
[20] = molecular target: Sodium channel protein type 4 subunit alpha (Homo sapiens, UniProt P35499); type: ADME
Sequence of Sodium channel protein type 4 subunit alpha (P35499 whole entry): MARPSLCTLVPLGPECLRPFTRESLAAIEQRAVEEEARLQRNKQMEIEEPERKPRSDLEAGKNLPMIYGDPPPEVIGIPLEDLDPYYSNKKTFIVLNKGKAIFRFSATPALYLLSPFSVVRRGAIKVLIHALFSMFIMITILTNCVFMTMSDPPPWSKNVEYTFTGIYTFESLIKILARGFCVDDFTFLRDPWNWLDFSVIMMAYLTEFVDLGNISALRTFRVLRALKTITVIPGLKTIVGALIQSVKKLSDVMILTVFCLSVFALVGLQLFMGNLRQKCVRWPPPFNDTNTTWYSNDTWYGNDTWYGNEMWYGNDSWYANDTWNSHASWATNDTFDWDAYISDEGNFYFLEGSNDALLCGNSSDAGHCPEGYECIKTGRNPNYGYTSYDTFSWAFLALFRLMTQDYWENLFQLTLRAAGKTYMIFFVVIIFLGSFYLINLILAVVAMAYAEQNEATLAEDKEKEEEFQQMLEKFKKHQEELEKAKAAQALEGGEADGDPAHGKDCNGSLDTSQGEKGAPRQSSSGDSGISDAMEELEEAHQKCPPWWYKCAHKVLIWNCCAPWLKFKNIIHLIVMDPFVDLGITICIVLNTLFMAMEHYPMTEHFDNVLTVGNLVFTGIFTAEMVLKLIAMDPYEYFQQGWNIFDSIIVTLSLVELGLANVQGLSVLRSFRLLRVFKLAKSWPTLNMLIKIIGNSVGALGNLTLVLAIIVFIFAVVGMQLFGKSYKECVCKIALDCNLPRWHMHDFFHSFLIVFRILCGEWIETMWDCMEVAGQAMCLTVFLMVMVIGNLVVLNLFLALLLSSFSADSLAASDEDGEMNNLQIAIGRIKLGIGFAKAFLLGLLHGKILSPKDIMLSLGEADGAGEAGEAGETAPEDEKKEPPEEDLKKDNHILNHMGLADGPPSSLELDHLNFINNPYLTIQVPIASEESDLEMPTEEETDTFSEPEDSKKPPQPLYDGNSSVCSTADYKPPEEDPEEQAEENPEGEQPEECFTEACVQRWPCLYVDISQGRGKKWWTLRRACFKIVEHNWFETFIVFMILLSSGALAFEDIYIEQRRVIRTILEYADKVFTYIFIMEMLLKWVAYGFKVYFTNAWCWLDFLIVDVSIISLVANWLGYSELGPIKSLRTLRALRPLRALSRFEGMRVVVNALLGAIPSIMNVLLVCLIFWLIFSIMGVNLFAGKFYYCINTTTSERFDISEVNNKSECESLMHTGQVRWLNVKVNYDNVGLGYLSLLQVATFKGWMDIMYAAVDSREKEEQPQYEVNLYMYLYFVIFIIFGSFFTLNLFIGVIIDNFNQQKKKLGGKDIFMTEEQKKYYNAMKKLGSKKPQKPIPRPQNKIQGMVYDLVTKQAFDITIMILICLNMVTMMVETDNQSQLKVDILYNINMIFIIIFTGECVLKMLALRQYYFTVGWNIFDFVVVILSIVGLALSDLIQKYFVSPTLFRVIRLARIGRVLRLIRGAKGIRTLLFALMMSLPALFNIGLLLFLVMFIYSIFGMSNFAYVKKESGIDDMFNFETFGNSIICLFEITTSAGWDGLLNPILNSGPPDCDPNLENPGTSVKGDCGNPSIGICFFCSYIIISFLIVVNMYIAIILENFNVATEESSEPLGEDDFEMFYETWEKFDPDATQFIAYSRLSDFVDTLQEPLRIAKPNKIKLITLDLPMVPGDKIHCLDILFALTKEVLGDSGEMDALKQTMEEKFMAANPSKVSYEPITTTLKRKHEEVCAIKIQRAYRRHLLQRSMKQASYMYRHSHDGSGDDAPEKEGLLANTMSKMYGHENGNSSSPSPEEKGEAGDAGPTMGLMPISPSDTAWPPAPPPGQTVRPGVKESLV

[21] = Drug uptake in Sprague-Dawley rat dorsal root ganglion at 100 mg/kg, ig measured after 1.5 hrs by LC-MS/MS analysis; type: ADME, organism-based; settings: in vivo, po
Cytochrome P450 3A4 = Cytochrome P450 3A4 (Homo sapiens, UniProt P08684)
[22] = Fraction unbound in rat plasma at 2 uM after 4 hrs by LC-MS/MS analysis; type: ADME, cell-free
[23] = Oral bioavailability in Sprague-Dawley rat at 10 mg/kg administered as single dose via gavage by LC-MS/MS analysis; type: ADME, organism-based; settings: in vivo
[24] = Cmax in Sprague-Dawley rat at 10 mg/kg administered as single dose via oral gavage by LC-MS/MS analysis; type: ADME, organism-based; set-up: dose 10 mg/kg, route oral; settings: in vivo
[25] = Unbound plasma concentration in Sprague-Dawley rat spinal nerve ligation model at 30 mg/kg administered as single dose via oral gavage measured after 4 hrs by LC-MS/MS analysis; type: ADME, organism-based; settings: in vivo
[26] = Clearance in Sprague-Dawley rat administered as single iv bolus by LC-MS/MS analysis; type: ADME, organism-based; settings: in vivo
physchem [27] = settings: buffer, pH 7.4; remark: listed apart in the source
[28] = Plasma concentration in Sprague-Dawley rat spinal nerve ligation model at 30 mg/kg administered as single dose via oral gavage measured after 2 hrs by LC-MS/MS analysis; type: ADME, organism-based
[29] = Volume of distribution at steady state in Sprague-Dawley rat administered as single iv bolus by LC-MS/MS analysis; type: ADME, organism-based; settings: in vivo, read-out: Vdss
[30] = Half life in Sprague-Dawley rat at 10 mg/kg administered as single dose via oral gavage by LC-MS/MS analysis; type: ADME, organism-based; settings: in vivo
[31] = Metabolic stability in dog liver microsomes assessed as parent compound remaining at 10 uM measured up to 60 mins in presence of NADPH by LC-MS analysis; type: ADME, Canis lupus familiaris, microsome; settings: read-out: Stability
[32] = Plasma concentration in Sprague-Dawley rat spinal nerve ligation model at 30 mg/kg administered as single dose via oral gavage measured after 1 hr by LC-MS/MS analysis; type: ADME, organism-based
[33] = Initial plasma concentration in Sprague-Dawley rat at 3 mg/kg administered as single iv bolus by LC-MS/MS analysis; type: ADME, organism-based
Cytochrome P450 2D6 = Cytochrome P450 2D6 (Homo sapiens, UniProt P10635)
Sequence of Cytochrome P450 2D6 (P10635 whole entry): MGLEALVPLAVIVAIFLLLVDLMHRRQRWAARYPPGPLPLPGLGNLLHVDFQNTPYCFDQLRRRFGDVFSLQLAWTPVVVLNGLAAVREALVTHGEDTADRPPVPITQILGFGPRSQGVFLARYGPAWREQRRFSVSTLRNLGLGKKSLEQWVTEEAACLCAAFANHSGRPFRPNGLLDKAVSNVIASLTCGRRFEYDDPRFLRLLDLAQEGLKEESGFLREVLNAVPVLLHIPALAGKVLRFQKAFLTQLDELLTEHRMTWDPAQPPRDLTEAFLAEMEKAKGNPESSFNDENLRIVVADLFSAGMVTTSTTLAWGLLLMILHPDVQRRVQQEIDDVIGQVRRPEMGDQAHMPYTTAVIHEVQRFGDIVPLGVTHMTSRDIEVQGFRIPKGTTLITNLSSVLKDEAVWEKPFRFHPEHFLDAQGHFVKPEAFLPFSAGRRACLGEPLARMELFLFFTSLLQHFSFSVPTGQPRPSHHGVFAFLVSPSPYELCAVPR

[34] = Drug metabolism in Sprague-Dawley rat dorsal root ganglion assessed as 4-(((1R,6R)-6-amino-2-(4-fluorophenyl)cyclohex-2-enyl)methoxy)-5-chloro-2-fluoro-N-(thiazol-4-yl)benzenesulfonamide formation at 100 mg/kg, ig measured after 1.5 hrs by LC-MS/MS analysis; type: ADME, organism-based; settings: in vivo, po
[35] = Clearance in Sprague-Dawley rat at 3 mg/kg administered as single iv bolus by LC-MS/MS analysis; type: ADME, organism-based; settings: in vivo
[36] = Fraction unbound in human plasma at 2 uM after 4 hrs by LC-MS/MS analysis; type: ADME, cell-free
[37] = Intrinsic clearance in rat liver microsomes at 1 uM after 60 mins in presence of NADPH by LC-MS/MS analysis; type: ADME, microsome; settings: read-out: CLH
[38] = Plasma concentration in Sprague-Dawley rat spinal nerve ligation model at 30 mg/kg administered as single dose via oral gavage measured after 4 hrs by LC-MS/MS analysis; type: ADME, organism-based

CCN[C@@H]1CCC=C(c2ccc(F)cc2)[C@H]1COc1cc(F)c(S(=O)(=O)Nc2cscn2)cc1Cl.Cl
concentration at 1 h [1]: 8480 nM
IC50 [2]: > 10 µM
logD (physchem [3]): 1.79
AUC [4]: 3.04 µM·h
remaining at 1 h, 10 µM [5]: 49.7%
IC50 (Cytochrome P450 2C9): 5.7 µM
Cp(f) [6]: 163 nM
AUC(0-t) [7]: 3.04 µM·h
Tmax [8]: 1.67 h
fAUClast (Rattus norvegicus): 0.106 µM·h
half-life [9]: 1.56 h
Drug metabolism [10]: Metabolite_Detected
CLint scaled at 1 µM [11]: 66.9 mL/min/kg
Cp(f) [12]: 70 nM
remaining at 1 h, 10 µM [13]: 37.6%
IC50 [14]: 0.034 µM
Drug metabolism [15]: Metabolite_Detected
Cp(f) [16]: 297 nM
pKa [17]: 6.34 to 9.35
AUC(0-t) [18]: 2.44 µM·h
concentration at 4 h [19]: 4640 nM
IC50 [20]: 25.2 µM
Drug uptake [21]: 2.6 µM/g
IC50 (Cytochrome P450 3A4): 43.4 µM
fraction unbound at 4 h, 2 µM [22]: 0.035
bioavailability [23]: 37%
Cmax [24]: 620 nM
Cp(f) [25]: 54 nM
clearance [26]: 37 mL/min/kg
solubility thermodynamic (physchem [27]): 26.5 µM
concentration at 2 h [28]: 2160 nM
Vd [29]: 4.65 L/kg
half-life [30]: 2.56 h
remaining at 1 h, 10 µM [31]: 81.2%
concentration at 1 h [32]: 2010 nM
C0 [33]: 1910 nM
IC50 (Cytochrome P450 2D6): 22 µM
Drug metabolism [34]: 0.5 µM/g
clearance [35]: 37 mL/min/kg
fraction unbound at 4 h, 2 µM [36]: 0.015
CLint scaled at 1 µM [37]: 137 mL/min/kg
concentration at 4 h [38]: 1530 nM
